# Like-named read-outs stand apart in the source and are kept apart here.
# Legend:
# A549 cells = assay: MTT cell proliferation assay; format: cell-based; settings: Homo sapiens; A549; 50 μg/mL; 48 h; read-out: inhibition of cells (antiproliferative activity, MTT)
# Procedure: (§1) Inhibition of cell proliferation by PC and EA was measured with the MTT assay. Human lung cancer A549 and H1299 cells were obtained from ATCC (Manassas, VA, USA) and maintained in DMEM supplemented with 10% fetal calf serum (FCS), 1% penicillin/streptomycin. Cells were plated in 96-well culture plates (5 × 10^3 cells/well). After 24 h incubation, cells were treated with vehicle alone (0.1% DMSO) and PC and EA (12.5–200 μg/mL) extracts for 48 h. Then, the culture medium was replaced by 100 μL of fresh medium containing 0.5 mg/mL MTT, and the plates were incubated for 2 h at 37°C. The medium was then removed and was replaced by 200 μL of DMSO to solubilize the converted purple dye. The absorbance was measured with a spectrophotometer microplate reader at a wavelength of 570 nm.
# H1299 cells = assay: MTT cell proliferation assay; format: cell-based; settings: Homo sapiens, NCI-H1299; H1299; 50 μg/mL; 48 h; read-out: inhibition of cells (antiproliferative activity, MTT)
# Procedure: as §1
# [1] = tested on: Salmonella typhimurium TA98; assay: Ames antimutagenicity assay (preincubation); settings: for inhibition at 50 µM / inhibition at 100 µM / inhibition at 250 µM / inhibition at 500 µM: Salmonella enterica, TYPHIMURIUM;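 as to all read-outs here: test compound and mutagen preincubated 30 min at 37°C before adding bacteria, then His+ revertant colonies counted after 48 h plating, inhibition relative to mutagen-only versus negative-control revertants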
# Procedure: (§2) In the preincubation experiment, test compounds and mutagen, each having a volume of 0.1 mL of varying concentrations, were preincubated at 37°C for 30 min and then 0.1 mL of 1 × 10^7 CFU/mL density of the bacterial culture was added, followed by the addition of 2.5 mL of top agar at 45°C (containing 0.5% NaCl and 0.6% agar) supplemented with 0.5 mM histidine-biotin. […] The combined solutions were vortexed and poured onto minimal glucose plates (40% glucose solution and Vogel Bonner medium). The plates were incubated at 37°C for 48 h and the numbers of histidine-independent revertants colonies were scored.
# (§3) Survival of the bacteria was routinely monitored for each experiment. Parallel controls were run with compounds alone at all concentrations to test the possible toxicity. The concentrations of the test samples for investigating the antimutagenicity were 50, 100, 200, and 500 μM. […] All the test samples and mutagens were dissolved in DMSO (final conc., 0.01%). […] Plates were set up in triplicate for each concentration and the entire experiment was repeated three times. Inhibition of mutagenicity was expressed as percentage decrease of reverse mutation and calculated as (1) Percent inhibition=[(a−b)/(a−c)]×100, where a = number of histidine revertants induced by mutagen, b = number of histidine revertants induced by mutagen in the presence of test compound, and c = number of revertants induced in negative control.
# [2] = tested on: Salmonella typhimurium strains TA97a, TA98, TA100, and TA102; assay: Ames test, statements over all tester strains; settings: 50–500 μM
# Procedure: as §2, §3
# [3] = tested on: Salmonella typhimurium TA97a; assay: Ames antimutagenicity assay (preincubation); settings: for inhibition at 50 µM / inhibition at 100 µM / inhibition at 250 µM / inhibition at 500 µM: Salmonella enterica, TYPHIMURIUM; for Number of His+ revertants colonies/plate: TA 97a;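 as to all read-outs here: compound and mutagen preincubated together 30 min at 37 °C before adding bacteria, then plated on minimal glucose agar for 48 h and His+ revertant colonies counted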
# Procedure: as §2, §3
# [4] = tested on: BP-induced DNA adducts (rat liver microsomes, st-DNA); assay: Microsomal BP-DNA adducts, 32P-postlabeling; format: biochemical; settings: for BP-induced DNA adducts: BP 1 μM, rat liver microsomes, st-DNA
# Procedure: st-DNA (300 μg/mL) was preincubated with 50 mM Tris-HCl (pH 7.5), 1 mM MgCl2, 2.5 mM glucose-6-phosphate, 1 U/mL G6PDH, 0.5 mM NADP+, and α-naphthoflavone-induced rat liver microsomal proteins (1 mg/mL) in 1 mL for 10 min, in the presence of vehicle alone and PC and EA at 20 and 40 μM. […] The incubation was continued for another 30 min at 37°C and then reaction was terminated by the addition of EDTA and centrifugation (9,000 g; 10 min). DNA was isolated from the supernatant by removal of RNA and proteins by digestions with RNases A and T1 and proteinase K and a series of extractions with phenol, phenol: Sevag (chloroform : isoamyl alcohol, 24 : 1), and Sevag, followed by precipitation of the DNA with ethanol. The DNA concentration was estimated spectrophotometrically.
# DNA adducts were analyzed by ^32P-postlabeling as described earlier. Briefly, 10 μg of DNA was digested with micrococcal nuclease and spleen phosphodiesterase (MN/SPD). Before further treatment with nuclease P1 to enrich DNA adducts, an aliquot was removed for evaluation of normal nucleotide levels. DNA adducts and normal nucleotides were labelled with [γ-^32P]ATP and T4 polynucleotide kinase. Labelled adducts were separated by multidirectional polyethyleneimine (PEI)-cellulose TLC using the following solvents: D1, 1.0 M sodium phosphate, pH 6.0; D3, 4 M lithium formate/7 M urea, pH 3.5; D4, 4 M ammonium hydroxide/isopropanol (1 : 0.9); and D5, 1.7 M sodium phosphate, pH 6.0. Normal nucleotides were resolved in 180 mM sodium phosphate, pH 6.0, by one-directional PEI-cellulose TLC. DNA adducts and normal nucleotides were detected and quantified by Packard InstantImager.
smiles,measurement,setting,value
"O=c1oc2c(O)c(O)cc3c(=O)oc4c(O)c(O)cc1c4c23 [Ellagic acid, ellagic acid]",inhibition at 50 µg/mL,A549 cells,39%
same,inhibition at 50 µg/mL,H1299 cells,34%
same,inhibition at 50 µM,"[1]; read-out: % inhibition of mutagenicity, TA 98, 50 μM + 2AF, S9",19.4%
same,inhibition at 50 µM,"[1]; read-out: % inhibition of mutagenicity, TA 98, 50 μM + BP, S9",22.2%
same,inhibition at 50 µM,"[1]; read-out: % inhibition of mutagenicity, TA 98, 50 μM + MMS, no S9",22.2%
same,inhibition at 100 µM,"[1]; read-out: % inhibition of mutagenicity, TA 98, 100 μM + 2AF, S9",39.6%
same,inhibition at 100 µM,"[1]; read-out: % inhibition of mutagenicity, TA 98, 100 μM + BP, S9",48.2%
same,inhibition at 100 µM,"[1]; read-out: % inhibition of mutagenicity, TA 98, 100 μM + MMS, no S9",34%
same,inhibition at 100 µM,"[1]; read-out: % inhibition of mutagenicity, TA 98, 100 μM + NaN3, no S9",27.9%
same,inhibition at 250 µM,"[1]; read-out: % inhibition of mutagenicity, TA 98, 250 μM + BP, S9",62.3%
same,inhibition at 250 µM,"[1]; read-out: % inhibition of mutagenicity, TA 98, 250 μM + MMS, no S9",50%
same,inhibition at 250 µM,"[1]; read-out: % inhibition of mutagenicity, TA 98, 250 μM + NaN3, no S9",50%
same,inhibition at 500 µM,"[1]; read-out: % inhibition of mutagenicity, TA 98, 500 μM + 2AF, S9",80%
same,inhibition at 500 µM,"[1]; read-out: % inhibition of mutagenicity, TA 98, 500 μM + BP, S9",78.6%
same,inhibition at 500 µM,"[1]; read-out: % inhibition of mutagenicity, TA 98, 500 μM + MMS, no S9",69%
same,inhibition at 500 µM,"[1]; read-out: % inhibition of mutagenicity, TA 98, 500 μM + NaN3, no S9",64.2%
same,Number of His+ revertants colonies/plate,"[1]; TA 98, 50 μM + 2AF, S9",214.3 ± 13.9 colonies/plate
same,Number of His+ revertants colonies/plate,"[1]; TA 98, 50 μM + BP, S9",140.0 ± 12.2 colonies/plate
same,Number of His+ revertants colonies/plate,"[1]; TA 98, 50 μM + MMS, no S9",53.0 ± 1.2 colonies/plate
same,Number of His+ revertants colonies/plate,"[1]; TA 98, 100 μM + 2AF, S9",171.0 ± 9.5 colonies/plate
same,Number of His+ revertants colonies/plate,"[1]; TA 98, 100 μM + BP, S9",107.3 ± 7.9 colonies/plate
same,Number of His+ revertants colonies/plate,"[1]; TA 98, 100 μM + MMS, no S9",48.3 ± 2.0 colonies/plate
same,Number of His+ revertants colonies/plate,"[1]; TA 98, 100 μM + NaN3, no S9",48.3 ± 2.7 colonies/plate
same,Number of His+ revertants colonies/plate,"[1]; TA 98, 250 μM + BP, S9",86.3 ± 5.8 colonies/plate
same,Number of His+ revertants colonies/plate,"[1]; TA 98, 250 μM + MMS, no S9",44.0 ± 2.1 colonies/plate
same,Number of His+ revertants colonies/plate,"[1]; TA 98, 250 μM + NaN3, no S9",43.3 ± 2.6 colonies/plate
same,Number of His+ revertants colonies/plate,"[1]; TA 98, 500 μM + 2AF, S9",76.3 ± 6.1 colonies/plate
same,Number of His+ revertants colonies/plate,"[1]; TA 98, 500 μM + BP, S9",60.7 ± 10.5 colonies/plate
same,Number of His+ revertants colonies/plate,"[1]; TA 98, 500 μM + MMS, no S9",37.3 ± 2.6 colonies/plate
same,Number of His+ revertants colonies/plate,"[1]; TA 98, 500 μM + NaN3, no S9",38.0 ± 1.7 colonies/plate
same,toxicity to Salmonella typhimurium strains,[2]; absence of S9,No toxicity
same,maximum inhibition of mutagenicity,"[2]; against sodium azide, MMS, BP, 2AF",up to 90%
same,inhibition at 50 µM,"[3]; read-out: % inhibition of mutagenicity, TA 97a, 50 μM + 2AF, S9",12.5%
same,inhibition at 50 µM,"[3]; read-out: % inhibition of mutagenicity, TA 97a, 50 μM + BP, S9",14.1%
same,inhibition at 50 µM,"[3]; read-out: % inhibition of mutagenicity, TA 97a, 50 μM + MMS, no S9",9%
same,inhibition at 50 µM,"[3]; read-out: % inhibition of mutagenicity, TA 97a, 50 μM + NaN3, no S9",21.1%
same,inhibition at 100 µM,"[3]; read-out: % inhibition of mutagenicity, TA 97a, 100 μM + 2AF, S9",22.6%
same,inhibition at 100 µM,"[3]; read-out: % inhibition of mutagenicity, TA 97a, 100 μM + BP, S9",36%
same,inhibition at 100 µM,"[3]; read-out: % inhibition of mutagenicity, TA 97a, 100 μM + MMS, no S9",25%
same,inhibition at 100 µM,"[3]; read-out: % inhibition of mutagenicity, TA 97a, 100 μM + NaN3, no S9",39.4%
same,inhibition at 250 µM,"[3]; read-out: % inhibition of mutagenicity, TA 97a, 250 μM + BP, S9",71.8%
same,inhibition at 250 µM,"[3]; read-out: % inhibition of mutagenicity, TA 97a, 250 μM + MMS, no S9",42.2%
same,inhibition at 250 µM,"[3]; read-out: % inhibition of mutagenicity, TA 97a, 250 μM + NaN3, no S9",53.6%
same,inhibition at 500 µM,"[3]; read-out: % inhibition of mutagenicity, TA 97a, 500 μM + 2AF, S9",81.7%
same,inhibition at 500 µM,"[3]; read-out: % inhibition of mutagenicity, TA 97a, 500 μM + BP, S9",83.5%
same,inhibition at 500 µM,"[3]; read-out: % inhibition of mutagenicity, TA 97a, 500 μM + MMS, no S9",66.5%
same,inhibition at 500 µM,"[3]; read-out: % inhibition of mutagenicity, TA 97a, 500 μM + NaN3, no S9",72.1%
same,Number of His+ revertants colonies/plate,"[3]; 50 μM + 2AF, S9",312.3 ± 20.5 colonies/plate
same,Number of His+ revertants colonies/plate,"[3]; 50 μM + BP, S9",652.7 ± 35.3 colonies/plate
same,Number of His+ revertants colonies/plate,"[3]; 50 μM + MMS, no S9",426.3 ± 11.6 colonies/plate
same,Number of His+ revertants colonies/plate,"[3]; 50 μM + NaN3, no S9",242.0 ± 11.8 colonies/plate
same,Number of His+ revertants colonies/plate,"[3]; 100 μM + 2AF, S9",296.7 ± 13.4 colonies/plate
same,Number of His+ revertants colonies/plate,"[3]; 100 μM + BP, S9",529.0 ± 28.6 colonies/plate
same,Number of His+ revertants colonies/plate,"[3]; 100 μM + MMS, no S9",378.0 ± 10.8 colonies/plate
same,Number of His+ revertants colonies/plate,"[3]; 100 μM + NaN3, no S9",219.3 ± 7.1 colonies/plate
same,Number of His+ revertants colonies/plate,"[3]; 250 μM + BP, S9",333.3 ± 22.2 colonies/plate
same,Number of His+ revertants colonies/plate,"[3]; 250 μM + MMS, no S9",321.3 ± 10.8 colonies/plate
same,Number of His+ revertants colonies/plate,"[3]; 250 μM + NaN3, no S9",196.7 ± 8.2 colonies/plate
same,Number of His+ revertants colonies/plate,"[3]; 500 μM + 2AF, S9",212.0 ± 10.4 colonies/plate
same,Number of His+ revertants colonies/plate,"[3]; 500 μM + BP, S9",275.3 ± 17.5 colonies/plate
same,Number of His+ revertants colonies/plate,"[3]; 500 μM + MMS, no S9",239.7 ± 10.8 colonies/plate
same,Number of His+ revertants colonies/plate,"[3]; 500 μM + NaN3, no S9",168.0 ± 7.0 colonies/plate
same,BP-induced DNA adducts,[4]; 20 μM test compound,58.6 ± 2.8 DNA adducts/10^8 nucleotides
same,BP-induced DNA adducts,[4]; 40 μM test compound,50.9 ± 8.1 DNA adducts/10^8 nucleotides
same,inhibition of BP-induced DNA adducts,"[4]; 40 μM, BP with rat liver microsomes, cofactors, DNA",77%

# From publication PMC4052943 (BioMed Research International, 2014)
